{"source": "patent US8119148B2", "about": "“Suspension comprising oxcarbazepine” (Novartis Pharmaceuticals Corporation, priority 1999, dated 2012)", "assay": "Solubility in water", "assay_type": "physicochemical", "conditions": "pH 5.8, water, at 25° C. and pH of 5.8 to 6.0", "method": "A wide range of container sizes may be employed. Container size may be conveniently categorised as Low-Volume, e.g., 100 ml or less and High-Volume, e.g., above 100 ml and typically 250 ml."}
{"smiles": "NC(=O)N1c2ccccc2CC(=O)c2ccccc21", "note": "[oxcarbazepine, 10,11-Dihydro-10-oxo-5H-di-benz[b,f]azepine-5-carboxamide]", "values": [{"measurement": "solubility", "result": "3200 to 4200", "unit": "µg/mL"}]}
